Source: patent US7795226B2, “Control of radiation injury” (Biotempt B.V., priority 2006, dated 2010)

Legend:
Format in all cases: in vivo
[1] = test system: renal ischemia reperfusion in mice; assay: mouse renal ischemia reperfusion test; parameters: BUN after 25 minutes renal ischemia, mean / Urea levels in dose-response experiment: unit not given here; details: for mortality at 72 hours post-reperfusion: 5 mg/kg i.v. before and after 25 minutes clamping, dead/total
Protocol: Six oligopeptides (i.e., A: LAGV (SEQ ID NO:121); B: AQGV (SEQ ID NO:120); C: LAG; D: AQG; E: MTR; and F: MTRV (SEO ID NO:119)) were tested and compared with PBS (control) in a double blind animal study for each peptide's relative ability to aid recovery in a mouse renal ischemia reperfusion test. In this test, the mice were anesthetized, and one kidney from each mouse was removed. The other kidney was tied off for 25 minutes, and the serum urea levels were allowed to increase. Both before and after tying off, each of the separate peptides was administered to thirty (30) different mice (5 mg oligopeptide / kg body mass intravenously), after which, the mortality of the mice was determined for each oligopeptide as well as was the BUN concentration at two hours, 24 hours and 72 hours. The results are shown in Table 3 below (excluding the results of peptide A (LAGV (SEQ ID NO:121)) obtained in Example 3).
Under inhalation anesthesia, the left kidney with its artery and vein was isolated and occluded for 25 minutes using a microvascular clamp. During surgery, animals were placed on a heating pad to maintain body temperature at 37° C. Five minutes before placing the clamp, and five minutes before releasing the clamp, 5 mg/kg of peptide dissolved in 0.1 mL of sterile saline, was administered intravenously. After reperfusion of the left kidney, the right kidney was removed. Kidney function was assessed by measuring blood urea nitrogen before clamping, and at 2, 24, and 72 hours after reperfusion.
Peptides were tested at 0.3, 1, 3, 10 and 30 mg/kg dosages given as described in Example 3. P values (calculated by Mann Whitney U-test (SPSS for Windows)) of serum urea levels of PBS compared to peptide D groups at 72 hours post-clamping were at 0.3 mg/kg 0.001, at 1 mg/kg 0.009, at 3 mg/kg 0.02, at 10 mg/kg 0.000, and at 30 mg/kg 0.23; for peptide B (SEQ ID NO:120) groups, these P-values were 0.88, 0.054, 0.000, 0.001 and 0.003.

[2] = test system: LPS (E. coli 026:B6)-induced septic shock in BALB/c mice; assay: LPS-induced septic shock, single dose of peptide; details: single dose 5 mg/kg
Protocol: (§1) Mice used in sepsis or septic shock experiments: Female BALB/c mice of eight to twelve weeks of age were used for all experiments. The animals were bred in our facility under specific pathogen-free conditions according to the protocols described in the […] of European Laboratory Animal Science Associations (FELASA) Working group on Animal Health (Laboratory Animals 28:1-24, 1994).
(§2) Injection protocols: For the endotoxin model, BALB/c mice were injected i.p. with 150-300 μg LPS (E. coli 026:B6; Difco Lab., Detroit, Mich., USA). Control groups were treated with PBS i.p. only. To test the effect of peptides, they were dissolved in PBS and injected i.p. at predetermined points in time after LPS treatment.
(§3) Mice were scored for sickness severity using the following measurement scheme: • 0 No abnormalities. • 1 Percolated fur, but no detectable behavior differences compared to normal mice. • 2 Percolated fur, huddle reflex, responds to stimuli (such as tap on cage), just as active during handling as healthy mouse. • 3 Slower response to tap on cage, passive or docile when handled, but still curious when alone in a new setting. • 4 Lack of curiosity, little or no response to stimuli, quite immobile. • 5 Labored breathing, inability or slow to self-right after being rolled onto back (moribund, sacrificed). • D Dead.
A first set of septic shock experiments were set up to determine which of the peptides LQG, LQGV (SEQ ID NO:117), VLPALP (SEQ ID NO:140), VLPALPQ (SEQ ID NO:143), MTR, MTRV (SEQ ID NO:119), VVC or QVVC (SEQ ID NO:118) were capable of inhibiting lipopolysaccharide (LPS)-induced septic shock in mice by treating mice with a single dose of peptide at two hours after LPS treatment. Peptides were used at 5 mg/kg bodyweight. BALB/c mice were injected i.p. with escalating doses LPS (E. coli 026:B6; Difco Lab., Detroit, Mich. USA), predetermined to be leading to 80 to 100% mortality in 24 to 72 hours.
To test the effect of peptide early in the development of shock, mice were treated at two hours or at 24 hours after treatment with varying doses of LPS by i.p. injection with test peptide at 5 mg/kg bodyweight.

[3] = test system: high dose LPS (E. coli 026:B6)-induced septic shock in BALB/c mice; assay: high dose LPS-induced septic shock, peptide administered twice; details: peptide twice (t = 2 and 24 hours) 5 mg/kg
Protocol: as §1, §2, §3
A second set of septic shock experiments were set up to determine which of the peptides LQG, LQGV (SEQ ID NO:117), VLPALP (SEQ ID NO:140), VLPALPQ (SEQ ID NO:143), MTR, MTRV (SEQ ID NO:119), VVC or AQG, AQGV (SEQ ID NO:120), LAG and LAGV (SEQ ID NO:121) were capable of inhibiting high dose LPS-induced septic shock in mice by treating mice with a double dose of peptide at two and 24 hours after LPS treatment. At each treatment, peptides were used at 5 mg/kg bodyweight. BALB/c mice were injected i.p. with high doses LPS (E. coli 026:B6; Difco Lab., Detroit, Mich. USA), predetermined to be leading to 80 to 100% mortality in 24 to 72 hours.

[4] = 2 hours after reperfusion, 5 mg/kg i.v.
[5] = 24 hours after reperfusion, 5 mg/kg i.v.
[6] = 72 hours after reperfusion, 5 mg/kg i.v.
[7] = t = 0 hr (before clamping), 5 mg/kg i.v.

## MTR
[1]; 5 mg/kg i.v.
  BUN concentration versus the PBS control group (in words): no reducing effect on BUN concentration
  mortality versus the PBS control group (in words): significant reduction of mortality
[1]
  mortality at 72 hours post-reperfusion: 4/10
[1]; [4]
  BUN after 25 minutes renal ischemia, mean: 17.13
[1]; [5]
  BUN after 25 minutes renal ischemia, mean: 66.23
[1]; [6]
  BUN after 25 minutes renal ischemia, mean: 104.0167
[1]; at 72 hours post-reperfusion, 5 mg/kg i.v.
  BUN concentration versus PBS (in words): significantly raise BUN levels
[1]; [7]
  BUN after 25 minutes renal ischemia, mean: 8.404
[2]; LPS dose 7**
  mice scored D (dead), effect at t = 48 hours: 3
  mice with sickness score 1, effect at t = 48 hours: 3
  mice with sickness score 2, effect at t = 24 hours: 1
  mice with sickness score 3, effect at t = 24 hours: 3
  mice with sickness score 4, effect at t = 24 hours: 1
  mice with sickness score 5, effect at t = 24 hours: 1
[2]; LPS dose 7*
  mice scored D (dead), effect at t = 48 hours: 1
  mice with sickness score 3, effect at t = 24 hours: 3
  mice with sickness score 4, effect at t = 24 hours: 3
  mice with sickness score 4, effect at t = 48 hours: 2
  mice with sickness score 5, effect at t = 48 hours: 3
[2]; LPS dose 10
  mice scored D (dead), effect at t = 24 hours: 1
  mice scored D (dead), effect at t = 48 hours: 3
  mice with sickness score 1, effect at t = 48 hours: 2
  mice with sickness score 3, effect at t = 24 hours: 2
  mice with sickness score 4, effect at t = 24 hours: 3
  mice with sickness score 5, effect at t = 48 hours: 1
[3]; LPS dose 10.5
  mice with sickness score 1, effect at t = 24 hours: 4
  mice with sickness score 1, effect at t = 48 hours: 5
  mice with sickness score 2, effect at t = 24 hours: 1
[3]; LPS dose 11
  mice with sickness score 1, effect at t = 24 hours: 6
  mice with sickness score 1, effect at t = 48 hours: 6

## LAGV (tetramer peptide)
[1]; 5 mg/kg i.v.
  BUN concentration versus the PBS control group (in words): reduced BUN concentration
  mortality versus the PBS control group (in words): significant reduction in mortality
[1]
  mortality at 72 hours post-reperfusion: 6/10
[1]; [4]
  BUN after 25 minutes renal ischemia, mean: 14.03
[1]; [5]
  BUN after 25 minutes renal ischemia, mean: 38.86
[1]; [6]
  BUN after 25 minutes renal ischemia, mean: 32.8875
[1]; [7]
  BUN after 25 minutes renal ischemia, mean: 8.167
[3]; LPS dose 10.5
  mice scored D (dead), effect at t = 48 hours: 4
  mice with sickness score 3, effect at t = 24 hours: 1
  mice with sickness score 3, effect at t = 48 hours: 1
  mice with sickness score 5, effect at t = 24 hours: 4
[3]; LPS dose 11
  mice scored D (dead), effect at t = 24 hours: 1
  mice scored D (dead), effect at t = 48 hours: 4
  mice with sickness score 3, effect at t = 24 hours: 1
  mice with sickness score 3, effect at t = 48 hours: 2
  mice with sickness score 4, effect at t = 24 hours: 1
  mice with sickness score 5, effect at t = 24 hours: 3

## AQGV
[1]; 0.3 mg/kg, 24 hours
  Mortality in dose-response experiment: 0-9
  Urea levels in dose-response experiment: 62.4
[1]; 0.3 mg/kg, 72 hours
  Mortality in dose-response experiment: 2-10
  Urea levels in dose-response experiment: 86.7
[1]; 1.0 mg/kg, 24 hours
  Mortality in dose-response experiment: 0-10
  Urea levels in dose-response experiment: 50.0
[1]; 1.0 mg/kg, 72 hours
  Mortality in dose-response experiment: 1-8
  Urea levels in dose-response experiment: 52.6
[1]; 3.0 mg/kg, 24 hours
  Mortality in dose-response experiment: 1-10
  Urea levels in dose-response experiment: 37.4
[1]; 3.0 mg/kg, 72 hours
  Mortality in dose-response experiment: 0-10
  Urea levels in dose-response experiment: 19.6
[1]; 5 mg/kg i.v.
  BUN concentration versus the PBS control group (in words): reduced BUN concentration
  mortality versus the PBS control group (in words): significant reduction in mortality
[1]
  mortality at 72 hours post-reperfusion: 0/10
[1]; 10.0 mg/kg, 24 hours
  Mortality in dose-response experiment: 0-10
  Urea levels in dose-response experiment: 41.2
[1]; 10.0 mg/kg, 72 hours
  Mortality in dose-response experiment: 0-8
  Urea levels in dose-response experiment: 37.1
[1]; 30.0 mg/kg, 24 hours
  Mortality in dose-response experiment: 0-8
  Urea levels in dose-response experiment: 47.8
[1]; 30.0 mg/kg, 72 hours
  Mortality in dose-response experiment: 3-10
  Urea levels in dose-response experiment: 38.0
[1]; [4]
  BUN after 25 minutes renal ischemia, mean: 16.62
[1]; [5]
  BUN after 25 minutes renal ischemia, mean: 26.36
[1]; [6]
  BUN after 25 minutes renal ischemia, mean: 22.31
[1]; [7]
  BUN after 25 minutes renal ischemia, mean: 9.713
[3]; LPS dose 10.5
  mice with sickness score 1, effect at t = 24 hours: 2
  mice with sickness score 1, effect at t = 48 hours: 5
  mice with sickness score 2, effect at t = 24 hours: 3
[3]; LPS dose 11
  mice with sickness score 1, effect at t = 24 hours: 2
  mice with sickness score 1, effect at t = 48 hours: 6
  mice with sickness score 2, effect at t = 24 hours: 4
